Data from article PMC5884652, “New antimicrobial peptide kills drug-resistant pathogens without detectable resistance” (Oncotarget, 2018).
Read-outs that look alike come from different tables or passages of the source. Ends that are not written are not given here.

Experiments:
[1] = Aggregation assay (light scattering); assay type: physicochemical; settings: 10 mM sodium phosphate buffer; for Self-aggregation: light scattering ex 400 nm / em 400 nm, 12 h, 37° C, mean of three experiments
Method: Light scattering assays were performed with clavaspirin and its analogue peptides using a Perkin-Elmer LS55 fluorometer. Peptides were dissolved in 10 mM sodium phosphate buffer (pH 5.5 or pH 7.4) and incubated for 12 h at 37° C. Light scattering was excited at 400 nm and the emission was scanned at 400 nm.

[2] = test system: Staphylococcus epidermidis ATCC 12228; assay type: cell-based
Description: (§1) The method for peptide synthesis has been described in detail previously. E. coli ATCC 25922 (LB media), P. aeruginosa ATCC 15692 (NB+0.5% NaCl media), Listeria monocytogenes ATCC 3710 (LB media), Staphylococcus epidermidis ATCC 12228 (LB media), and S. aureus ATCC 29213 (TSB media) were obtained from the American Type Culture Collection (Manassas, VA, USA). Bacillus subtilis KCTC 1998 (LB media), Salmonella typhimurium KCTC 1926 (NB media), and Proteus vulgaris KCTC 2433 (NB media) were obtained from the Korean Collection for Type Cultures (Jeollabuk-do, Korea). E. coli CCARM 1238 was received from the Culture Collection of Antibiotic Resistant Microbes at Seoul Women’s University, Korea. Drug-resistant P. aeruginosa 3543, 3904, 3547, and 4007 and S. aureus 3126, 0027, 5157, 1635, 4761, 5159, 3359, 2122, 1630, 1870, 3511, 5156, and 3518 were resistant strains isolated from patients with otitis media in a Chonnam National University’s hospital.
(§2) The antibacterial activities of AMPs (melittin, clavaspirin, and its analogs) and conventional antibiotic drugs (erythromycin, gentamicin, ampicillin, and piperacidin) were determined using microdilution assays. Bacterial cells were cultured at 37° C in appropriate culture media at pH 5.5 or pH 7.4 until collection during the mid-log phase and suspended in 10 mM sodium phosphate buffer (pH 5.5 or pH 7.4) supplemented with 10% culture medium. Thereafter, 2× serial dilutions of each peptide (0.25–128 μM) or antibiotic (0.25–256 μM) were added to sterile 96-well plates, and aliquots of cell suspension (5 × 10^5 colony forming units (cfu)/mL) were seeded into each well. The samples were then incubated at 37° C for 24 h. At the end of the incubation, the minimum inhibitory concentrations (MICs) of the peptides were determined using a VERSA Max microplate reader (Molecular Devices Co., Sunnyvale, CA, USA) at a wavelength of 600 nm. […] MIC values were calculated as the mean of 3 independent experiments conducted in triplicate.

[3] = test system: Listeria monocytogenes ATCC 3710; assay type: cell-based
Description: as §1, §2

[4] = test system: Bacillus subtilis KCTC 1998; assay type: cell-based
Description: as §1, §2

P. aeruginosa ATCC 15692 = assay type: cell-based, Pseudomonas aeruginosa
Description: as §1, with “E. coli ATCC 25922 (LB media), P. aeruginosa ATCC 15692 (NB+0.5% NaCl media), Listeria monocytogenes ATCC 3710 (LB media), Staphylococcus epidermidis ATCC 12228 (LB media), and S. aureus ATCC 29213 (TSB media) were obtained from the American Type Culture Collection (Manassas, VA, USA).” left out
as §2, with “Bacterial cells were cultured at 37° C in appropriate culture media at pH 5.5 or pH 7.4 until collection during the mid-log phase and suspended in 10 mM sodium phosphate buffer (pH 5.5 or pH 7.4) supplemented with 10% culture medium.” left out

S. aureus ATCC 29213 = assay type: cell-based, Staphylococcus aureus
Description: as §1, with “E. coli ATCC 25922 (LB media), P. aeruginosa ATCC 15692 (NB+0.5% NaCl media), Listeria monocytogenes ATCC 3710 (LB media), Staphylococcus epidermidis ATCC 12228 (LB media), and S. aureus ATCC 29213 (TSB media) were obtained from the American Type Culture Collection (Manassas, VA, USA).” left out
as §2

E. coli CCARM1238 = test: microbe, parasite or virus in culture; assay type: cell-based, Escherichia coli; settings: pH 7.4 (II); 10 mM sodium phosphate buffer, 10% LB; 37° C, 24 h; mean of 3 experiments
Description: as §1, §2

E. coli = test: SYTOX-Green uptake; assay type: cell-based; settings: E. coli 2 × 10^7 cfu/mL, 1 μM SYTOX-Green, 10 mM sodium phosphate buffer, pH 5.5 and pH 7.4
[5] = pH 5.5 (I), 10 mM sodium phosphate buffer, 10% LB, 37° C, 24 h, mean of 3 experiments
[6] = pH 7.4 (II), 10 mM sodium phosphate buffer, 10% LB, 37° C, 24 h, mean of 3 experiments

## FKRFIGSVKHGIGHLVHHIGVAL-NH2 [CSP-3]
[1]; pH 7.4
  Self-aggregation: aggregation increased
[2]; ATCC 12228, 24 h, pH 5.5
  MIC, S. epidermidis: 4 µM
[2]; ATCC 12228, 24 h, pH 7.4
  MIC, S. epidermidis: 8 µM
[3]; ATCC 3710, 24 h, pH 5.5
  MIC, L. monocytogenes: 16 µM
[3]; ATCC 3710, 24 h, pH 7.4
  MIC, L. monocytogenes: 8 µM
[4]; KCTC 1998, 24 h, pH 5.5
  MIC, B. subtilis: 8 µM
[4]; KCTC 1998, 24 h, pH 7.4
  MIC, B. subtilis: 16 µM
P. aeruginosa ATCC 15692; ATCC 15692, 24 h, pH 5.5
  MIC, P. aeruginosa: 32 µM
P. aeruginosa ATCC 15692; ATCC 15692, 24 h, pH 7.4
  MIC, P. aeruginosa: 32 µM
S. aureus ATCC 29213; ATCC 29213, 24 h, pH 5.5
  MIC, S. aureus: 8 µM
S. aureus ATCC 29213; ATCC 29213, 24 h, pH 7.4
  MIC, S. aureus: 8 µM

## FLRFIGSVKHGKGHLVHHIGVAL-NH2 [CSP-4]
[1]; pH 5.5
  Self-aggregation: very little self-aggregation
[1]; pH 5.5 vs pH 7.4, light scattering
  Effect of varying the pH on aggregation: not affected
[1]; pH 7.4
  Self-aggregation: very little self-aggregation
[2]; [5]
  MIC, S. epidermidis: 4 µM
[2]; [6]
  MIC, S. epidermidis: 8 µM
[3]; [5]
  MIC, L. monocytogenes: 4 µM
[3]; [6]
  MIC, L. monocytogenes: 4 µM
[4]; [5]
  MIC, B. subtilis: 4 µM
[4]; [6]
  MIC, B. subtilis: 4 µM
P. aeruginosa ATCC 15692; [5]
  MIC, P. aeruginosa: 32 µM
P. aeruginosa ATCC 15692; [6]
  MIC, P. aeruginosa: 32 µM
E. coli CCARM1238
  MIC: 2 µM
S. aureus ATCC 29213; [5]
  MIC, S. aureus: 8 µM
S. aureus ATCC 29213; [6]
  MIC, S. aureus: 8 µM
E. coli
  Membrane disruption (SYTOX-Green fluorescence): dose-dependent increase in fluorescence intensity
